Measurements as given in patent publication US11179449B2, “Immunogenic preprocalcitonin peptides” (Institut Gustave Roussy, priority 2015, dated 2021).

Columns and labels:
[1] = test system: PBMC of patients with non-small cell lung cancer (NSCLC); assay: In vitro stimulation of PBMC of NSCLC patients with 9- or 10-aa ppCT peptides, CD8+/IFNγ+ cells by flow cytometry; type: cell-based, human
Description: The peripheral blood mononuclear cells (PBMC) of 11 patients with non-small cell lung cancer (NSCLC) were isolated from the peripheral blood by Ficoll. For each peptide, the PBMC were stimulated twice (D0 and D7) with 20 μM of peptide. The PBMC were cultivated for 2 weeks on 96-well plates, at a rate of 20 million cells/plate, on complete medium (RPMI 1640, 10% SAB, 1% sodium pyruvate, 0.1% penicillin/[…]) in the presence of IL-2 (20 IU/ml)+IL-4 (10 ng/ml)+IL-7 (10 ng/ml).
After 15 days, the PBMC are again stimulated with 2.5 μM of the peptide used during the first stimulation step, in the presence of 100 μg/ml of Brefeldin A, and incubated for 6 hours at 37° C., 5% CO2. The cells are then incubated for 20 minutes with an anti-CD8-APC antibody, then washed in PBS, fixed with PBS-formaldehyde 2% and permeabilised by BSA/saponin. They are then incubated with an anti-IFN-γ-PE antibody. The analysis is carried out by flow cytometry. The statistical study is performed using the Mann-Whitney test and the statistically significant increases are indicated (*p<0.05; **p<0.01; ***p<0.005).

[2] = test system: CD8 T lymphocytes expressing IFNγ (splenocytes); assay: Immunisation of HLA-A2 transgenic mice with peptide combinations, CD8+/IFNγ+ splenocytes by flow cytometry after ex vivo restimulation; type: in vivo, transgenic mice for the HLA-A2 molecules; settings: splenocytes of immunised mice
Description: The transgenic mice for the HLA-A2 molecules were immunised 4 times (D0, D7, D14 and D21), under the skin on the flank, with 100 μl of peptide combinations containing an equimolar mixture of 100 μM of each of the peptides and an adjuvant (25 μg of Poly (I:C)) (FIG. 4). At 28 days after the first injection, the mice were sacrificed and the splenocytes were recovered and cultivated overnight in complete medium (RPMI 1640, 10% FBS, 1% sodium pyruvate, 0.1% penicillin/[…]) in the presence of IL-2 (20 IU/ml).
The next day, the splenocytes were stimulated with 2.5 μM of each of the peptides, alone or in combination, in the presence of 10 μg/ml of Brefeldin A and incubated for 6 hours at 37° C., 5% CO2. The cells are then incubated for 20 minutes with an anti-CD8-PE antibody, then washed in PBS, fixed with PBS-formaldehyde 2% and permeabilised with BSA/saponin. They are then incubated with an anti-IFNγ-APC antibody. The analysis is carried out by flow cytometry.

[3] = patients 4, 5 and 7 (respond only to these peptides)

| Sequence | lymphocyte response after stimulation ([1]; patient 3) | lymphocyte response after stimulation [1, 3] | CD8 T lymphocyte response induced by the peptide alone on ex vivo stimulation [2] |
| --- | --- | --- | --- |
| CMLGTYTQDF (synthetic peptide ppCT91-100) | triggers a response |  |  |
| FLALSILVL (synthetic peptide ppCT9-17) |  | trigger a lymphocyte response |  |
| LLAALVQDYV (synthetic peptide ppCT50-59) | triggers a response | trigger a lymphocyte response | strong response |
